Reference: BindingDB's records for doi:10.1016/s0960-894x(01)00529-7 (The R. W. Johnson Pharmaceutical Research Institute, 2001)
pIC50: −log10 of the molar value.

Experiment: Inhibition of thrombin-induced human gel-filtered platelet aggregation

Row | pIC50 | Compound
1 | 10.17 | O=C(N[C@@H](CNC(=O)C1CCCn2c(CCC3CCNCC3)nnc21)C(=O)O)OCc1ccccc1 (stereo partly specified) [2-Benzyloxycarbonylamino-3-{[3-(2-piperidin-4-yl-ethyl)-5,6,7,8-tetrahydro-[1,2,4]triazolo[4,3-a]pyridine-8-carbonyl]-amino}-propionic acid]
2 | 10.39 | O=C(N[C@@H](CNC(=O)C1CCCn2c(C=CC3CCNCC3)nnc21)C(=O)O)OCc1ccccc1 (stereo partly specified) [2-Benzyloxycarbonylamino-3-{[3-(2-piperidin-4-yl-vinyl)-5,6,7,8-tetrahydro-[1,2,4]triazolo[4,3-a]pyridine-8-carbonyl]-amino}-propionic acid]
3 | 8.57 | CC1(C(=O)NC[C@H](NC(=O)OCc2ccccc2)C(=O)O)CCCn2c(CCC3CCNCC3)nnc21 (stereo partly specified) [2-Benzyloxycarbonylamino-3-{[8-methyl-3-(2-piperidin-4-yl-ethyl)-5,6,7,8-tetrahydro-[1,2,4]triazolo[4,3-a]pyridine-8-carbonyl]-amino}-propionic acid]
4 | 10.37 | O=C(NC[C@H](NS(=O)(=O)Cc1ccccc1)C(=O)O)C1CCCn2c(/C=C/C3CCNCC3)nnc21 (stereo partly specified) [2-Phenylmethanesulfonylamino-3-{[3-(2-piperidin-4-yl-vinyl)-5,6,7,8-tetrahydro-[1,2,4]triazolo[4,3-a]pyridine-8-carbonyl]-amino}-propionic acid]
5 | 9.92 | O=C(Cc1cccnc1)N[C@@H](CNC(=O)C1CCCn2c(/C=C/C3CCNCC3)nnc21)C(=O)O (stereo partly specified) [3-{[3-(2-Piperidin-4-yl-vinyl)-5,6,7,8-tetrahydro-[1,2,4]triazolo[4,3-a]pyridine-8-carbonyl]-amino}-2-(2-pyridin-3-yl-acetylamino)-propionic acid]
6 | 10.80 | O=C(O)C[C@H](NC(=O)C1CCCn2c(CCC3CCNCC3)nnc21)c1cccnc1 (stereo partly drawn) [(S)-3-{[3-(2-Piperidin-4-yl-ethyl)-5,6,7,8-tetrahydro-[1,2,4]triazolo[4,3-a]pyridine-8-carbonyl]-amino}-3-pyridin-3-yl-propionic acid]
7 | 9.43 | O=C(O)C[C@H](NC(=O)c1cccn2c(CCC3CCNCC3)nnc12)c1cccnc1 [(S)-3-{[3-(2-Piperidin-4-yl-ethyl)-[1,2,4]triazolo[4,3-a]pyridine-8-carbonyl]-amino}-3-pyridin-3-yl-propionic acid]
8 | 10.21 | O=C(O)C[C@H](NC(=O)C1CCCn2c(/C=C/C3CCNCC3)nnc21)c1cccnc1 (stereo partly drawn) [(S)-3-{[3-((E)-2-Piperidin-4-yl-vinyl)-5,6,7,8-tetrahydro-[1,2,4]triazolo[4,3-a]pyridine-8-carbonyl]-amino}-3-pyridin-3-yl-propionic acid]
9 | 10.24 | O=C(O)C[C@H](NC(=O)C1CCCn2c(/C=C/C3CCNCC3)nnc21)c1cnc2ccccc2c1 (stereo partly drawn) [(S)-3-{[3-((E)-2-Piperidin-4-yl-vinyl)-5,6,7,8-tetrahydro-[1,2,4]triazolo[4,3-a]pyridine-8-carbonyl]-amino}-3-quinolin-3-yl-propionic acid]
10 | 10.22 | O=C(O)C[C@H](NC(=O)[C@@H]1CCCN(C(=O)CCC2CCNCC2)C1)c1cccnc1 [(S)-3-{[(R)-1-(3-Piperidin-4-yl-propionyl)-piperidine-3-carbonyl]-amino}-3-pyridin-3-yl-propionic acid]
11 | 10.57 | O=C(N[C@@H](CNC(=O)[C@@H]1CCCN(C(=O)CCC2CCNCC2)C1)C(=O)O)OCc1ccccc1 [RWJ-53419]
